Assay results from article PMC5524647 (Nature Communications, 2017).
Entries after “also recorded” stand apart in the source; their conditions may differ.

Columns and labels:
[1] = molecular target: mAb 4C7; type: binding, mouse; conditions: for Kd: read-out: K D of mAb 4C7 binding
[2] = test system: mAb 4C7; type: binding, mouse
[3] = test system: mAb 9C1-2; type: binding, mouse
[4] = test system: mAb 4C7; type: binding, mouse; remark: listed apart in the source
[5] = test system: mAb 3D11; type: binding, mouse
[6] = test system: mAb Pp-PS-W; type: binding, mouse
[7] = test system: serum samples from culture-confirmed Thai melioidosis patients; type: binding, human

For CC(=O)OC1C(OC2C(O)C(CO)OC(OCCCCCNC(=O)CCCCCNC(=O)CCCCC3SCC4NC(=O)NC43)C2O)OC(C)C(O)C1OC1OC(CO)C(O)C(O)C1O (stereo not shown) [BIO-2], the “K D of mAb 4C7 binding” value [1] was “no binding” and the “binding of mAb 4C7 according to sensorgrams” value (shortened to “binding of mAb 4C7 according”) [1] was “did not interact”.
COC1C(O)C(C)OC(OC2C(O)C(CO)OC(OCCCCCNC(=O)CCCCCNC(=O)CCCCC3SCC4NC(=O)NC43)C2O)C1OC(C)=O (stereo not shown) [BIO-6] was tested, and the “binding of mAb 4C7 according” value [1] was “bound” and the Kd [1] was 22 nM.
With COC1C(OC(C)=O)C(C)OC(OC2C(O)C(CO)OC(OCCCCCNC(=O)CCCCCNC(=O)CCCCC3SCC4NC(=O)NC43)C2O)C1OC(C)=O (stereo not shown) [BIO-7] the “binding of mAb 4C7 according” value [1] was “bound” and the Kd [1] was 120 nM.
With COC1C(O)C(C)OC(OC2C(O)C(CO)OC(OCCCCCN)C2O)C1OC(C)=O (stereo not shown) [disaccharide 6] the “normalized STD effect, O-acetyl group” value [2] was 97%, the “normalized STD effect, glucose proton H3” value [2] was ~60% and the “normalized STD effect, talose H1” value [2] was 96%. The “normalized STD effect, talose H4” value [2] was 88%, the “normalized STD effect, talose proton at position 2” value [2] was 100% and the “normalized STD intensities, glucose protons at positions 4, 5, and 6” value [2] was < 50%. The “reactivity with mAb 9C1-2 (ELISA)” value [3] was “reacted strongly”, the “reactivity with mAb 4C7 (ELISA)” value [4] was “reacted strongly; also recorded: highest recognition” and the “reactivity with mAb 3D11 (ELISA)” value [5] was “reacted strongly”.
COC1C(OC(C)=O)C(C)OC(OC2C(O)C(CO)OC(OCCCCCN)C2O)C1OC(C)=O (stereo not shown) [disaccharide 7] was tested, and the “STD-NMR effects with mAb 4C7” value [2] was “some STD enhancements were observed; also recorded: Low and not quantifiable STD effects”, the “STD-NMR signals with mAb 4C7” value [2] was “did not show any signals” and the “reactivity with mAb Pp-PS-W (ELISA)” value [6] was “reacted strongly”. The “reactivity of human immune serum samples with the coated antigen” value [7] was “crossreact”.
